Results taken from PubChem BioAssay (NCI).
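How tested: cells in 96-well plates exposed to compound for 48 hours at five concentrations. At the GI50, growth is halved. TGI is the concentration that stops growth completely.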

Assays:
Experiment in all cases: NCI-60 cell line screen, 48 h
RPMI-8226 leukemia = test system: RPMI-8226 leukemia
CCRF-CEM leukemia = test system: CCRF-CEM leukemia
786-0 renal = test system: 786-0 renal
LOX IMVI melanoma = test system: LOX IMVI melanoma
SK-MEL-2 melanoma = test system: SK-MEL-2 melanoma
UO-31 renal = test system: UO-31 renal
UACC-62 melanoma = test system: UACC-62 melanoma
HCT-116 colon = test system: HCT-116 colon
HOP-62 NSCLC = test system: HOP-62 NSCLC
UACC-257 melanoma = test system: UACC-257 melanoma
TK-10 renal = test system: TK-10 renal
MDA-MB-468 breast = test system: MDA-MB-468 breast
PC-3 prostate = test system: PC-3 prostate
OVCAR-8 ovarian = test system: OVCAR-8 ovarian
SK-OV-3 ovarian = test system: SK-OV-3 ovarian
MCF7 breast = test system: MCF7 breast
HOP-92 NSCLC = test system: HOP-92 NSCLC
BT-549 breast = test system: BT-549 breast
NCI-H460 lung = test system: NCI-H460 lung
MDA-MB-435 = test system: MDA-MB-435
U251 CNS = test system: U251 CNS
OVCAR-5 ovarian = test system: OVCAR-5 ovarian
SN12C renal = test system: SN12C renal
A498 renal = test system: A498 renal
IGROV1 ovarian = test system: IGROV1 ovarian
MOLT-4 leukemia = test system: MOLT-4 leukemia
SK-MEL-5 melanoma = test system: SK-MEL-5 melanoma
SF-295 CNS = test system: SF-295 CNS
COLO 205 colon = test system: COLO 205 colon
NCI-H23 lung = test system: NCI-H23 lung
M14 melanoma = test system: M14 melanoma
T-47D breast = test system: T-47D breast
MDA-MB-231 breast = test system: MDA-MB-231 breast
NCI-H226 lung = test system: NCI-H226 lung
NCI-H522 lung = test system: NCI-H522 lung
CAKI-1 renal = test system: CAKI-1 renal
HS 578T breast = test system: HS 578T breast
HL-60(TB) leukemia = test system: HL-60(TB) leukemia
SF-268 CNS = test system: SF-268 CNS
SW-620 colon = test system: SW-620 colon
SK-MEL-28 melanoma = test system: SK-MEL-28 melanoma
ACHN renal = test system: ACHN renal
OVCAR-4 ovarian = test system: OVCAR-4 ovarian
HT29 colon = test system: HT29 colon
K-562 leukemia = test system: K-562 leukemia
SNB-19 CNS = test system: SNB-19 CNS
SF-539 CNS = test system: SF-539 CNS
MALME-3M melanoma = test system: MALME-3M melanoma
HCC-2998 colon = test system: HCC-2998 colon
A549 NSCLC = test system: A549 NSCLC
SNB-75 CNS = test system: SNB-75 CNS
HCT-15 colon = test system: HCT-15 colon
OVCAR-3 ovarian = test system: OVCAR-3 ovarian
DU-145 prostate = test system: DU-145 prostate
KM12 colon = test system: KM12 colon
RXF 393 renal = test system: RXF 393 renal

Nc1cccnc1/C=N/NC(=S)NCCNC(=O)c1ccc(-n2nc(-c3ccccc3O)nc2-c2ccccc2O)cc1
GI50 (RPMI-8226 leukemia): 344 nM
TGI (RPMI-8226 leukemia): 2090 nM
GI50 (CCRF-CEM leukemia): 186 nM
TGI (CCRF-CEM leukemia): 1210 nM
GI50 (786-0 renal): 790 nM
TGI (786-0 renal): 3730 nM
GI50 (LOX IMVI melanoma): 331 nM
TGI (LOX IMVI melanoma): 1880 nM
GI50 (SK-MEL-2 melanoma): 765 nM
TGI (SK-MEL-2 melanoma): 9460 nM
GI50 (UO-31 renal): 1380 nM
TGI (UO-31 renal): 5230 nM
GI50 (UACC-62 melanoma): 236 nM
TGI (UACC-62 melanoma): 1050 nM
GI50 (HCT-116 colon): 305 nM
TGI (HCT-116 colon): 6670 nM
GI50 (HOP-62 NSCLC): 487 nM
TGI (HOP-62 NSCLC): 5460 nM
GI50 (UACC-257 melanoma): 838 nM
TGI (UACC-257 melanoma): > 20700 nM
GI50 (TK-10 renal): 1270 nM
TGI (TK-10 renal): > 29700 nM
GI50 (MDA-MB-468 breast): 249 nM
TGI (MDA-MB-468 breast): 935 nM
GI50 (PC-3 prostate): 376 nM
TGI (PC-3 prostate): 13200 nM
GI50 (OVCAR-8 ovarian): 418 nM
GI50 (SK-OV-3 ovarian): 594 nM
TGI (SK-OV-3 ovarian): 3510 nM
GI50 (MCF7 breast): 189 nM
TGI (MCF7 breast): 4900 nM
GI50 (HOP-92 NSCLC): 283 nM
TGI (HOP-92 NSCLC): 5160 nM
GI50 (BT-549 breast): 374 nM
TGI (BT-549 breast): 2830 nM
GI50 (NCI-H460 lung): 396 nM
TGI (NCI-H460 lung): 2460 nM
GI50 (MDA-MB-435): 561 nM
TGI (MDA-MB-435): > 100000 nM
GI50 (U251 CNS): 305 nM
GI50 (OVCAR-5 ovarian): 1570 nM
TGI (OVCAR-5 ovarian): > 28400 nM
GI50 (SN12C renal): 494 nM
TGI (SN12C renal): 6350 nM
GI50 (A498 renal): 29700 nM
TGI (A498 renal): > 100000 nM
GI50 (IGROV1 ovarian): 355 nM
TGI (IGROV1 ovarian): 11600 nM
GI50 (MOLT-4 leukemia): 300 nM
TGI (MOLT-4 leukemia): > 100000 nM
GI50 (SK-MEL-5 melanoma): 492 nM
TGI (SK-MEL-5 melanoma): 2160 nM
GI50 (SF-295 CNS): 541 nM
TGI (SF-295 CNS): 2970 nM
GI50 (COLO 205 colon): 329 nM
TGI (COLO 205 colon): 11700 nM
GI50 (NCI-H23 lung): 454 nM
TGI (NCI-H23 lung): 6970 nM
GI50 (M14 melanoma): 425 nM
TGI (M14 melanoma): 2470 nM
GI50 (T-47D breast): 225 nM
TGI (T-47D breast): 1910 nM
GI50 (MDA-MB-231 breast): 471 nM
TGI (MDA-MB-231 breast): 14900 nM
GI50 (NCI-H226 lung): 803 nM
TGI (NCI-H226 lung): 4850 nM
GI50 (NCI-H522 lung): 154 nM
TGI (NCI-H522 lung): 798 nM
GI50 (CAKI-1 renal): 1240 nM
TGI (CAKI-1 renal): > 20900 nM
GI50 (HS 578T breast): 232 nM
TGI (HS 578T breast): > 100000 nM
GI50 (HL-60(TB) leukemia): 261 nM
TGI (HL-60(TB) leukemia): 901 nM
GI50 (SF-268 CNS): 557 nM
TGI (SF-268 CNS): > 64400 nM
GI50 (SW-620 colon): 648 nM
TGI (SW-620 colon): > 100000 nM
GI50 (SK-MEL-28 melanoma): 532 nM
TGI (SK-MEL-28 melanoma): > 100000 nM
GI50 (ACHN renal): 1210 nM
TGI (ACHN renal): 18500 nM
GI50 (OVCAR-4 ovarian): 729 nM
TGI (OVCAR-4 ovarian): > 100000 nM
GI50 (HT29 colon): 472 nM
TGI (HT29 colon): 2720 nM
GI50 (K-562 leukemia): 115 nM
TGI (K-562 leukemia): > 100000 nM
GI50 (SNB-19 CNS): 337 nM
TGI (SNB-19 CNS): > 100000 nM
GI50 (SF-539 CNS): 106 nM
TGI (SF-539 CNS): 1360 nM
GI50 (MALME-3M melanoma): 628 nM
TGI (MALME-3M melanoma): 8940 nM
GI50 (HCC-2998 colon): 533 nM
TGI (HCC-2998 colon): 8160 nM
GI50 (A549 NSCLC): 1230 nM
TGI (A549 NSCLC): > 23800 nM
GI50 (SNB-75 CNS): 328 nM
TGI (SNB-75 CNS): > 33800 nM
GI50 (HCT-15 colon): 1980 nM
TGI (HCT-15 colon): 11700 nM
GI50 (OVCAR-3 ovarian): 366 nM
TGI (OVCAR-3 ovarian): 15900 nM
GI50 (DU-145 prostate): 1600 nM
TGI (DU-145 prostate): > 100000 nM
GI50 (KM12 colon): 480 nM
TGI (KM12 colon): 6530 nM
GI50 (RXF 393 renal): 1040 nM
TGI (RXF 393 renal): 4060 nM
